Reference: patent US8729048B2, “Methods and materials for assessing responsiveness to PARP inhibitors and platinating agents” (Mayo Foundation for Medical Education and Research, priority 2011, dated 2014)

Key:
[1] = tested on: poly(ADP-ribose) polymer (pADPr) in PEO1 cells; assay: Immunoblotting for poly(ADP-ribose) polymer; format: cell-based; settings: 72 hours, ABT-888 0-40 μM
Experimental: FIG. 2. DNA-PK is activated following PARP inhibitor exposure in PEO1 cells. (A) Western blots for poly(ADP-ribose) polymer (pADPr) and phosphorylation of DNA-PK substrates (DNA-PKcs autophosphorylation at Thr^2609 and Histone H2AX at Ser^139) in PEO1 cells following 72 hours exposure to increasing concentrations of ABT-888 (0, 0.625, 1.25, 2.5, 5, 10, 20, and 40 μM). Hsp90, total DNA-PKcs, and Histone H1 are used as loading controls. […] (C) Quantitation of cells positive for phospho-H2AX foci in PEO1 and PEO4 cells, following treatment with DMSO, 500 nM DNA-PKi, 20 μM ABT-888 (ABT), ABT-888 and DNA-PKi, 50 μM Etoposide (Etop), or 5 Gy ionizing radiation (IR). […]
Cells were washed twice with calcium- and magnesium-free Dulbecco's phosphate-buffered saline (PBS) and solubilized in 6 M guanidine hydrochloride containing 250 mM Tris-HCl, pH 8.5 at 20° C., 10 mM EDTA, 1% (v/v) 2-mercaptoethanol, and 1 mM freshly added phenylmethylsulfonyl fluoride. After preparation for electrophoresis as described elsewhere (Kaufmann et al., Blood, 89:2098-2104 (1997)), aliquots containing 50 μg of protein (determined by the bicinchoninic acid method—S10) were separated on SDS-polyacrylamide gels containing 8% (w/v) acrylamide, electrophoretically transferred to nitrocellulose, and probed with immunological reagents as described elsewhere (Kaufmann, Anal. Biochem., 296:283-286 (2001)). […]

[2] = tested on: phospho-H2AX and phospho-DNA-PKcs foci in HCC1937 cells; assay: Immunofluorescence / confocal foci in HCC1937 cells; format: cell-based
Experimental: FIG. 15. Upon PARP inhibition, HCC1937 cells form phospho-H2AX foci that colocalize to regions of activated DNA-PK. (A) Quantitation of cells positive for phospho-H2AX foci in HCC1937 and HCC1937/BRCA1 cells, following treatment with 0.2% DMSO, 250 nM DNA-PKi, 20 μM ABT-888 (ABT), ABT-888 and DNA-PKi, 50 μM etoposide (Etop), or 5 Gy ionizing radiation (IR). Cells were exposed to ABT-888 and/or DNA-PKi for 72 hours, etoposide for 1 hour, or allowed to recover 1 hour post-IR. Results are reported as mean±SEM of 3 independent experiments. (B) Confocal microscopy after staining with antibodies to phospho-H2AX (Ser^139) and phospho-DNA PKcs (Thr^2609) as in FIG. 2D. HCC1937 cells are shown on the left, and reconstituted HCC1937/BRCA1 cells on the right.
Immunofluorescence studies were performed as described elsewhere (Segovis et al., J. Immunol., 182:6933-6942 (2009)) with several modifications. […]
Coverslips were then washed three times with PBS and incubated for 1 h with Alexa Fluor 488- and/or 568-conjugated secondary antibody (Invitrogen) diluted 1:1000. […] Phospho-H2AX positive cells (defined as having >10 foci/cell) were counted on a Zeiss Axioplan microscope. […] Quantitation and image processing were performed using the Zeiss Zen software package and Adobe Photoshop CS3.

Q: Which “poly(ADP-ribosyl)ation” value [1] does the source give for `C[C@]1(c2nc3c(C(N)=O)cccc3[nH]2)CCCN1` [ABT-888] here?
A: decreased

Q: Which “effect on ABT-888 induced colocalization of phospho-Thr2609-DNA-PK and phospho-Ser139-H2AX in foci” value [2] does the source give for `CCN1CCN(CC(=O)Nc2ccc(-c3cccc4c(=O)cc(N5CCOCC5)oc34)c3sc4ccccc4c23)CC1` [AZ 12594248] here?
A: inhibited ABT-888 induced colocalization

Q: And the “effect on formation of H2AX foci” value ([2]; 250 nM DNA-PKi with 20 μM ABT-888, 72 hours)?
A: diminished formation of H2AX foci
